Measurements as given in patent US20250114380A1, “SMALL MOLECULE CD38 INHIBITORS AND METHODS OF USING SAME” (President and Fellows of Harvard College, priority 2011, published 2025).

Tests used:
cellular NADase activity = assay: Cellular NADase activity; type: cell-based
Description: FIG. 2A depicts inhibition in cellular NADase activity by CD38 inhibitors Apigenin and Quercetin. In certain embodiments, the invention relates to small molecules capable of inhibiting CD38 activity at nanomolar or micromolar concentrations (FIG. 1 and FIG. 3). Preliminary cellular assays on some of these compounds have shown that they are able to inhibit cellular NADase activity resulting in increased cellular NAD levels (FIG. 2a and FIG. 2b).

murine OSCs = assay: Mitochondrial DNA copy number in OSCs; type: cell-based
Protocol: (§1) Oogonial stem cells were isolated from dissociated ovaries using a FACS based sorting protocol to purify OSCs free of contaminating oocytes (White et al., in press). Cells were maintained in culture medium consisted of minimum essential medium α (MEMα), 10% FBS, 1 mM sodium pyruvate, 1 mM non-essential amino acids, 2 mM 1-glutamine, 0.1 mM β-mercaptoethanol (Sigma), 10 ng/ml-1 LIF (Millipore), 1× N-2 MAX Media Supplement (R&D) 10 ng/ml EGF (Epidermal growth factor, Recombinant human; Gibco), 40 ng/ml human GDNF (glial cell line-derived neurotrophic factor; R&D systems), 1 ng/ml human bFGF (basic fibroblast growth factor; Gibco)
(§2) For all experiments 25,000 cells were plated in each well of a 24 well plate. Cells were allowed to attach for 24 h and then were treated with NMN (β-Nicotinamide mononucleotide; Sigma). Unless otherwise stated, NMN was added at for 12 and again for 6 hours before analysis (12+6 h).
Total cellular DNA was isolated from cells at the indicated time points using DNeasy Blood & Tissue Kit (Qiagen) according to the manufacturer's instructions. Mt DNA copy number was quantified using LightCycler 480 SYBR Green I Master (Roche Applied Science) using the following primers on a Roche 480 PCR machine.

[1] = NAD+ levels in vivo in mice
Protocol: Cardiac [NAD^+] declines with age and is reversed by NMN treatment (n=3; 200 mg/kg/d intraperitoneally for 1 week).
(§3) FIG. 11A depicts the restorative effects of an NAD^+ precursor (NMN) on mitochondrial function in vivo.

[2] = Mitochondrial function in skeletal muscle in vivo; conditions: 24-month old mice, 1 week of treatment, I.P.
Description: as §3

[3] = test system: murine oogonial stem cells (OSCs); assay: NAD+/NADH levels in oogonial stem cells; type: cell-based
Protocol: as §1, §2
NAD+/NADH levels were measured according to the manufacturer's instructions using the NAD/NADH Quantitation Kit (Biovision)

[4] = test system: cultured murine oogonial stem cells; assay: Spontaneous oocyte formation assay; type: cell-based; conditions: 200 μM and 400 μM NMN
Protocol: FIG. 9 depicts the increase in spontaneuous oocyte formation in cultured murine oogonial stem cells by nicotinamide mononucleotide. For assessment of spontaneous oocyte formation, each well of a 24-well plate was seeded with 25.000 OSCs, and the number of oocytes formed and released into the medium per well was assessed the second day after seeding as well as the designated time points after NMN treatment. Left bar=vehicle; middle bar=200 μM nicotinamide mononucleotide (NMN); right bar=400 μM NMN.
For assessment of spontaneous oocyte formation, each well of a 24-well plate was seeded with 25.000 OSCs, and the number of oocytes formed and released into the medium per well was assessed the second day after seeding as well as the designated time points after NMN treatment.

C2C 2 cells = assay: Mitochondrial function in C2C 2 cells; type: cell-based; conditions: SIRT1-dependent (sh Ctl vs sh SIRT1)

cellular NADase activity (cellular NADase activity)	SMILES	mitochondrial DNA content (murine OSCs)	age-related decline of cardiac [NAD+] ([1]; 200 mg/kg/d intraperitoneally for 1 week)	rise of NAD+ levels in brain, heart and skeletal muscle ([1]; intraperitoneal injection)	NAD+ levels in vivo ([1]; young and old mice)	decline in mitochondrial function in skeletal muscle [2]	cellular NAD+ [3]	cellular NAD+/NADH [3]	cellular NADH [3]	spontaneous oocyte formation [4]	mitochondrial function (C2C 2 cells)
inhibition	O=c1cc(-c2ccc(O)cc2)oc2cc(O)cc(O)c12 [Apigenin, 5,7,4′-Trihydroxyflavone]										
	NC(=O)c1ccc[n+]([C@@H]2O[C@H](COP(=O)([O-])O)[C@@H](O)[C@H]2O)c1 [NMN, β-Nicotinamide mononucleotide]	increase	reversed	30-100%	raises NAD^+ levels	completely reversed	increase	increase	increase	increase	increases mitochondrial function
inhibition	O=c1c(O)c(-c2ccc(O)c(O)c2)oc2cc(O)cc(O)c12 [Quercetin, 3,5,7,3′,4′-Pentahydroxyflavone]										
